From patent publication US8324190B2, “Treatment of proliferative disorders with amino-substituted (E)-2,6- dialkoxystyryl 4-substituted benzylsulfones” (Temple University—Of The Commonwealth System of Higher …, priority 2002, dated 2012)

Key:
Test in all cases: Tumor cell viability assay, Trypan blue exclusion
Type in all cases: cell-based
Settings in all cases: cell viability after 96 hours
[1] = system: non-small cell lung carcinoma cell line H157
Protocol: (§1) BT-20 is an estrogen-unresponsive cell line. NIH/3T3 and HFL are normal murine and human fibroblasts, respectively. BT-20, DLD-1 and H157 were grown in Dulbecco's modified Eagle's medium (DMEM) containing 10% fetal bovine serum supplemented with penicillin and streptomycin. DU145 was cultured in RPMI with 10% fetal bovine serum containing penicillin and streptomycin. NIH3T3 and HFL cells were grown in DMEM containing 10% calf serum supplemented with penicillin and streptomycin. Cells were plated at density levels of 1.0×10^5 cells per well in six-well plates. Cell cultures were maintained at 37° C. in a humidified atmosphere of 5% CO2. Cells were treated with compounds of the invention at various concentrations. Cell viability was determined after 96 hours by the Trypan blue exclusion method. […] The number of viable cells remaining after 96 hours of treatment was determined using hemacytometer following trypan blue staining. The number of viable cells has been plotted as the percent of Vehicle treated (control) cells.

[2] = system: prostate carcinoma cell line DU-145
Protocol: as §1

[3] = system: colorectal carcinoma cell line DLD-1
Protocol: as §1

[4] = system: breast adenocarcinoma cell line BT-20
Protocol: as §1

Measured: IC50

COc1cc(OC)c(/C=C/S(=O)(=O)Cc2ccc(OC)c(S(=O)(=O)NCC(=O)O)c2)c(OC)c1 [Example 1, (E)-2,4,6-Trimethoxystyryl-3-(carboxymethylsulfamyl)-4-methoxybenzylsulfone]
< 10 µM: all assays above

COc1cc(OC)c(/C=C/S(=O)(=O)Cc2ccc(OC)c(NC(=O)CC(=O)O)c2)c(OC)c1 [Example 2, (E)-2,4,6-Trimethoxystyryl-3-(carboxyacetamido)-4-methoxy-benzylsulfone]
< 10 µM: all assays above

COc1cc(OC)c(/C=C/S(=O)(=O)Cc2ccc(OC)c(NC(=N)N)c2)c(OC)c1 [Example 3, (E)-2,4,6-Trimethoxystyryl-3-(guanidino)-4-methoxybenzyl-sulfone]
< 10 µM: all assays above

COc1cc(OC)c(/C=C/S(=O)(=O)Cc2ccc(OC)c(NCC(=O)O)c2)c(OC)c1 [Example 4, (E)-2,4,6-Trimethoxystyryl-3-(carboxymethylamino)-4-methoxy-benzylsulfone]
< 10 µM: all assays above

COc1cc(OC)c(/C=C/S(=O)(=O)Cc2ccc(OC)c(NC(=O)c3cc([N+](=O)[O-])cc([N+](=O)[O-])c3)c2)c(OC)c1 [Example 5, (E)-2,4,6-trimethoxystyryl-3-(3,5,dinitrobenzamido)-4-methoxy-benzylsulfone]
< 10 µM: all assays above

COc1cc(OC)c(/C=C/S(=O)(=O)Cc2ccc(OC)c(NC(=O)c3cc(N)cc(N)c3)c2)c(OC)c1 [Example 6, (E)-2,4,6-trimethoxystyryl-3-(3,5,diaminobenzamido)-4-methoxy-benzylsulfone]
< 10 µM: all assays above

COc1cc(OC)c(/C=C/S(=O)(=O)Cc2ccc(OC)c(NC(=O)CCl)c2)c(OC)c1 [Example 7, (E)-2,4,6-Trimethoxystyryl-3-(chloroacetamido)-4-methoxybenzyl-sulfone]
< 10 µM: all assays above

COc1cc(OC)c(/C=C/S(=O)(=O)Cc2ccc(OC)c(NC(=O)CN3CCN(C)CC3)c2)c(OC)c1 [Example 8]
< 10 µM: all assays above

COc1cc(OC)c(/C=C/S(=O)(=O)Cc2ccc(OC)c(NC(=O)c3ccccc3)c2)c(OC)c1 [Example 9, (E)-2,4,6-Trimethoxystyryl-3-(benzamido)-4-methoxybenzyl-sulfone]
< 10 µM: all assays above

COc1cc(OC)c(/C=C/S(=O)(=O)Cc2ccc(OC)c(NC(=O)c3ccc([N+](=O)[O-])cc3)c2)c(OC)c1 [Example 10, (E)-2,4,6-Trimethoxystyryl-3-(4-nitrobenzamido)-4-methoxy-benzylsulfone]
< 10 µM: all assays above

COc1cc(OC)c(/C=C/S(=O)(=O)Cc2ccc(OC)c(NC(N)=O)c2)c(OC)c1 [Example 16, (E)-2,4,6-Trimethoxystyryl-3-(ureido)-4-methoxybenzylsulfone]
< 10 µM: all assays above

CNc1cc(CS(=O)(=O)/C=C/c2c(OC)cc(OC)cc2OC)ccc1OC [Example 17, (E)-2,4,6-Trimethoxystyryl-3-(N-methylamino)-4-methoxybenzyl-sulfone]
< 10 µM: all assays above

COc1cc(OC)c(/C=C/S(=O)(=O)Cc2ccc(OC)c(NC(C)=O)c2)c(OC)c1 [Example 18, (E)-2,4,6-Trimethoxystyryl-3-(acetamido)-4-methoxybenzyl-sulfone]
< 10 µM: all assays above

COc1cc(OC)c(/C=C/S(=O)(=O)Cc2ccc(OC)c(NS(=O)(=O)c3ccc([N+](=O)[O-])cc3[N+](=O)[O-])c2)c(OC)c1 [Example 19, (E)-2,4,6-Trimethoxystyryl-3-(2,4-dinitrobenzenesulfamyl)-4-methoxybenzylsulfone]
< 10 µM: all assays above

COc1cc(OC)c(/C=C/S(=O)(=O)Cc2ccc(OC)c(NS(=O)(=O)c3ccc(N)cc3N)c2)c(OC)c1 [Example 20, (E)-2,4,6-Trimethoxystyryl-3-(2,4-diaminobenzenesulfamyl)-4-methoxybenzylsulfone]
< 10 µM: all assays above

COc1cc(OC)c(/C=C/S(=O)(=O)Cc2ccc(OC)c(NC(=O)CN(C)C)c2)c(OC)c1 [Example 21, (E)-2,4,6-trimethoxystyryl-3-(dimethylaminoacetamido)-4-methoxybenzylsulfone]
< 10 µM: all assays above

COc1cc(OC)c(/C=C/S(=O)(=O)Cc2ccc(OC)c(NC(C)C(=O)O)c2)c(OC)c1 (stereo not shown) [Example 22, (E)-2,4,6-trimethoxystyryl-3-[(1-carboxyethyl)amino]-4-methoxybenzylsulfone]
< 10 µM: all assays above

COc1cc(OC)c(/C=C/S(=O)(=O)Cc2ccc(OC)c(NC(=O)c3ccc(N4CCN(C)CC4)cc3)c2)c(OC)c1 [Example 23, (E)-2,4,6-trimethoxystyryl-3-[4-(4-methylpiperazin-1-yl)-benzamido]-4-methoxybenzylsulfone]
< 10 µM: all assays above

COc1cc(OC)c(/C=C/S(=O)(=O)Cc2ccc(OC)c(NC(=O)CO)c2)c(OC)c1 [Example 24, (E)-2,4,6-trimethoxystyryl-3-(hydroxyacetamido)-4-methoxy-benzylsulfone]
< 10 µM: all assays above

COc1cc(OC)c(/C=C/S(=O)(=O)Cc2ccc(OC)c(NC(=O)C[n+]3ccccc3)c2)c(OC)c1 [Example 25, (E)-2,4,6-trimethoxystyryl-3-(pyridinium-1-yl)acetamido-4-methoxybenzylsulfone]
< 10 µM: all assays above

COc1cc(OC)c(/C=C/S(=O)(=O)Cc2ccc(OC)c(NC(=O)COC(C)=O)c2)c(OC)c1 [Example 26, (E)-2,4,6-trimethoxystyryl-3-(acetoxyacetamido)-4-methoxy-benzylsulfone]
< 10 µM: all assays above

COc1cc(OC)c(/C=C/S(=O)(=O)Cc2ccc(OC)c(NC(=O)C(C)O)c2)c(OC)c1 (stereo not shown) [Example 27, (E)-2,4,6-Trimethoxystyryl-3-(2-hydroxypropionamido)-4-methoxy benzylsulfone]
< 10 µM: all assays above

CC[N+](CC)(CC)CC(=O)Nc1cc(CS(=O)(=O)/C=C/c2c(OC)cc(OC)cc2OC)ccc1OC [Example 28, (E)-2,4,6-trimethoxystyryl-3-(triethylammoniumacetamido)-4-methoxybenzylsulfone]
< 10 µM: all assays above

COc1cc(OC)c(/C=C/S(=O)(=O)Cc2ccc(OC)c(NC(=O)C[N+](CCO)(CCO)CCO)c2)c(OC)c1 [Example 29, (E)-2,4,6-trimethoxystyryl-3-[tri-(2-hydroxyethyl)ammonium]-acetamido-4-methoxybenzylsulfone]
< 10 µM: all assays above

COc1cc(OC)c(/C=C/S(=O)(=O)Cc2ccc(OC)c(NC(=O)C(C)(C)O)c2)c(OC)c1 [Example 30, (E)-2,4,6-trimethoxystyryl-3-(2-methyl-2-hydroxypropion-amido)-4-methoxybenzylsulfone]
< 10 µM: all assays above
